{
  "source": "paper PMC7431030",
  "about": "(Nature, 2020)",
  "key": {"[1]": {"test_system": "SARS-CoV-2", "type": "cell-based"}, "[2]": {"test_system": "SARS-CoV-2", "type": "cell-based", "conditions": "Vero E6 cells"}, "[3]": {"test_system": "SIGMAR1", "conditions": "Extended Data Fig. 10b, cited from earlier work"}, "[4]": {"test_system": "SIGMAR2/TMEM97", "conditions": "annotated activity, Extended Data Fig. 10b; cited from earlier work"}, "[5]": {"test_system": "SARS-CoV-2", "type": "cell-based", "remark": "listed apart in the source"}, "[6]": {"test_system": "viral replication", "conditions": "cited from earlier work"}},
  "note": "Entries after “also recorded” stand apart in the source; their conditions may differ. Square brackets hold non-standard residues; d marks the D form. Peptide text beside a SMILES is read from it. NMeTrp(1-(4-Br-benzyl)) = CN[C@@H](Cc1cn(Cc2ccc(Br)cc2)c2ccccc12)C(=O)O; Butanoyl(2R-oxy,4-CN) = N#CCC[C@@H](O)C(=O)O; NMeL = CN[C@@H](CC(C)C)C(=O)O; NMeA = CN[C@@H](C)C(=O)O",
  "data": [
    {"compound": "CCN(CCO)CCCC(C)Nc1ccnc2cc(Cl)ccc12", "note": "(stereo not shown) [hydroxychloroquine]", "values": [
      {"measurement": "detection of the viral NP protein (in words)", "setting": "[1]", "value": "decreased the detection of the viral NP protein"},
      {"measurement": "antiviral activity / viral infectivity (in words)", "setting": "[2]", "value": "effectively reducing viral infectivity"}
    ]},
    {"compound": "Clc1ccc(C(OCCN2CCCCC2)c2ccccc2)cc1", "note": "(stereo not shown) [cloperastine]", "values": [
      {"measurement": "antiviral activity / viral infectivity (in words)", "setting": "[2]", "value": "antiviral activity"}
    ]},
    {"compound": "Cc1cc2c(s1)Nc1ccccc1N=C2N1CCN(C)CC1", "note": "[olanzapine]", "values": [
      {"measurement": "antiviral activity / viral infectivity (in words)", "setting": "[2]", "value": "not antiviral"},
      {"measurement": "Sigma receptor activity (in words)", "setting": "[3]", "value": "little Sigma receptor activity"},
      {"measurement": "activity at SIGMAR1, reported", "setting": "[3]; annotated activity", "value": "greater than 5 μM"}
    ]},
    {"compound": "CC(C)C[C@@H]1NC(=O)[C@H](Cc2cn(Cc3ccc(Br)cc3)c3ccccc23)N(C)C(=O)[C@H](CC(C)C)NC(=O)[C@H](CC(C)C)N(C)C(=O)[C@H](CC(C)C)NC(=O)[C@@H](CCC#N)OC(=O)[C@H](C)N(C)C1=O", "note": "[PS3061] (cyclo(L[NMeA][Butanoyl(2R-oxy,4-CN)]L[NMeL]L[NMeTrp(1-(4-Br-benzyl))]))", "values": [
      {"measurement": "antiviral activity / viral infectivity (in words)", "setting": "[2]", "value": "effectively reducing viral infectivity; also recorded: blocked SARS-CoV-2 replication"}
    ]},
    {"compound": "Cc1cc(OCCN2CCOCC2)nn1-c1ccc2ccccc2c1", "note": "[E-52862]", "values": [
      {"measurement": "binding at SIGMAR2/TMEM97, reported", "setting": "[4]", "value": "greater than 1 μM"}
    ]},
    {"compound": "O=C(CCCN1CCC(O)(c2ccc(Cl)cc2)CC1)c1ccc(F)cc1", "note": "[haloperidol, Haloperidol]", "values": [
      {"measurement": "antiviral activity / viral infectivity (in words)", "setting": "[2]", "value": "effectively reducing viral infectivity; also recorded: antiviral activity"}
    ]},
    {"compound": "COc1cc2c(c(OC)n1)[C@]1(O)[C@H](O)[C@H](CN(C)C)[C@@H](c3ccccc3)[C@]1(c1ccc(C#N)cc1)O2", "note": "[zotatifin]", "values": [
      {"measurement": "detection of the viral NP protein (in words)", "setting": "[1]", "value": "decreased the detection of the viral NP protein"},
      {"measurement": "antiviral activity / viral infectivity (in words)", "setting": "[2]", "value": "reduce viral infectivity in a concentration-dependent matter; also recorded: effectively reducing viral infectivity; also recorded: strong antiviral effect"}
    ]},
    {"compound": "Fc1ccc(-n2cc(CCCCN3CCC4(CC3)OCc3ccccc34)c3ccccc32)cc1", "note": "[siramesine]", "values": [
      {"measurement": "antiviral activity / viral infectivity (in words)", "setting": "[2]", "value": "antiviral"}
    ]},
    {"compound": "CCCN1CCC=C(c2cc(-c3ccc(C)cc3)no2)C1.O=C(O)C(=O)O", "note": "[PD-144418]", "values": [
      {"measurement": "antiviral activity / viral infectivity (in words)", "setting": "[2]", "value": "effectively reducing viral infectivity"}
    ]},
    {"compound": "COc1cccc2c1CCCC2CCCN1CCN(C2CCCCC2)CC1", "note": "(stereo not shown) [PB28]", "values": [
      {"measurement": "times more potent than hydroxychloroquine", "setting": "[5]", "value": "~ 20 times"},
      {"measurement": "detection of the viral NP protein (in words)", "setting": "[1]", "value": "decreased the detection of the viral NP protein"},
      {"measurement": "antiviral activity / viral infectivity (in words)", "setting": "[2]", "value": "effectively reducing viral infectivity"}
    ]},
    {"compound": "COc1ccc(CCN2CCC(Nc3nc4ccccc4n3Cc3ccc(F)cc3)CC2)cc1", "note": "[astemizole]", "values": [
      {"measurement": "activity in viral replication assays reported by others (in words)", "setting": "[6]", "value": "active in viral replication assays"}
    ]},
    {"compound": "CC(=O)[C@H]1CC[C@H]2[C@@H]3CCC4=CC(=O)CC[C@]4(C)[C@H]3CC[C@]12C", "note": "[progesterone]", "values": [
      {"measurement": "antiviral activity / viral infectivity (in words)", "setting": "[2]", "value": "antiviral"}
    ]},
    {"compound": "CCCCc1oc2ccccc2c1C(=O)c1cc(I)c(OCCN(CC)CC)c(I)c1", "note": "[amiodarone]", "values": [
      {"measurement": "activity in viral replication assays reported by others (in words)", "setting": "[6]", "value": "active in viral replication assays"}
    ]},
    {"compound": "COc1ccc2c(c1)[C@]13CCCC[C@@H]1[C@H](C2)N(C)CC3", "note": "[dextromethorphan]", "values": [
      {"measurement": "viral titers (TCID50), effect in words", "setting": "[5]", "value": "increases viral titers"},
      {"measurement": "antiviral activity / viral infectivity (in words)", "setting": "[2]", "value": "pro-viral activity"}
    ]},
    {"compound": "COc1ccc(CCN(C)CCCC(C#N)(c2ccc(OC)c(OC)c2)C(C)C)cc1OC", "note": "(stereo not shown) [verapamil]", "values": [
      {"measurement": "activity in viral replication assays reported by others (in words)", "setting": "[6]", "value": "active in viral replication assays"}
    ]}
  ]
}
